Measured values taken from patent US20090170930A1, “METHODS FOR DIRECTING DIFFERENTIATION OF CLONOGENIC NEURAL STEM CELLS WITH COUMARINS” (THE SECOND MILITARY MEDICAL UNIVERSITY, priority 2006, published 2009).

Experiments:
Rat NSCs = assay: NG2 immunocytochemistry cell count: differentiation of NSCs to NG2 positive cells (OPCs); assay type: cell-based; details: NSC neurospheres, mean±S.D.
Method: (§1) Rat NSCs isolation and culture were performed as described by Weiss et al (Weiss et al., 1996). Briefly, the cortex of 1- to 2-day-old newborn SD rats were removed and placed into sterile chilled Hank's Balanced Salt Solution. After the meninges were carefully removed, tissues were cut into tiny pieces and gently triturated with a Pasteur pipette at least 10-15 times. The suspended tissue was centrifuged at 500 g for 5 min and the pellets were re-suspended in a proliferation medium (DMEM/F12 nutrient (1:1) with additional 2% B27 (Invitrogen Corporation, Carlsbad, Calif.) supplement and 20 ng/mL bFGF (PeproTech, Rocky Hill, N.J.)). The cells were plated at a density of 50 cells/mL in non-coated […] flasks. Every 4 days, bFGF was added along with a partial medium change. After 7 days in vitro, cells formed floating neurospheres. To subculture NSCs, the neurospheres were centrifuged at 600 g for 5 min when the diameters of neurospheres reached a size of approximately 100-200 μm; they were then re-suspended in fresh medium and mechanically dissociated into single cells. Single cells subsequently were seeded into proliferation medium at a density of 10 cells/mL per flask. This procedure produced a second generation of neurospheres, and additional generations of NSCs were produced using this same procedure.
Neurospheres were plated into 12-well plates on poly-D-lysine coated 35 mm dishes at a density of 10-20 spheres per dish in 1.5 mL medium. 1 hour after plating, compounds were added at a final concentration 100 μM unless otherwise indicated. After 5 days, cells were examined with Phase contrast image or immunocytochemistry.
Identification of the different kinds of cells was performed using indirect immunocytochemistry. Cells on dishes were fixed with 4% paraformaldehyde at room temperature for 20 min and washed three times in succession with 0.01 M PBS for 5 min each time. Cells were then treated with 0.3% Triton 100 containing 10% normal goat serum at room temperature for 30 min (Xu et al., 2006). Cells were then incubated with primary antibodies at 4° C. for 12-16 h and washed three times with 0.01 M phosphate buffered saline (PBS) for 5 min each time. FITC-conjugated secondary antibodies were added to the cells, and the cells were incubated at 37° C. for 40 min. After three 5 min PBS washes, Hochest 33258 nuclear stain was added at room temperature for 10 min, followed by two more 5 min PBS rinses. The dishes were examined by a fluorescence microscopy. The primary antibodies included anti-GFAP (1:200; rabbit; Promega), anti-nestin (1:500; Mouse; Chemicon); anti-NG2(1:200; Mouse; Chemicon), anti-MBP (1:50; Mouse; Chemicon), anti-04 (1:100; Mouse; Chemicon), anti-RIP (1:100; Mouse; Chemicon), anti-olig2 (1:100; rabbit; Abcam). The secondary antibodies were FITC-labeled antibodies to rabbit IgG (1:200) and TRITIC-labeled antibodies to mouse IgG (1:200). Immunostained preparations were examined with an IX70 Olympus microscope equipped for phase contrast and epi-fluorescence. Light from a 75 W xenon arc lamp (AH2-RX, Olympus) passed through filter sets (Chroma) to generate excited light for Hochest 33258, FITC and TRITIC stains. All image acquisitions were finished with computer-controlled CCD (Micromax 5 MHz system, Roper Princeton Instruments) and MetaMorph Imaging System version 3.6 (Universal Imaging Corporation). To determine the number of cells expressing a particular antigen, 100 fields per sample were examined and totaled. Observers without knowledge of the treatment condition counted the numbers of positive cells for NG2, compared to total numbers of progeny of NSCs determined by counting Hochest 33258 staining cell nuclei. Results are given as mean±S.D. of data for six samples from three independent experiments. Statistical analyses were carried out using Student's t-test with SPSS software (Version 10.1). […]

NSCs = assay: Primary compound screen of NSCs, phase contrast morphology; assay type: cell-based, rat; details: 100 μM, 5 days, phase contrast microscope
Method: as §1, with “procedure. […]” for “procedure.”

## COc1cc2oc(=O)cc(-c3ccccc3)c2cc1O [Dalbergin]
Rat NSCs; Dose 1 μM
  The ratio of NG2 positive cells of the total cells (%): 1%
Rat NSCs; Dose 10 μM
  The ratio of NG2 positive cells of the total cells (%): 1%
Rat NSCs; Dose 100 μM
  The ratio of NG2 positive cells of the total cells (%): 1%
Rat NSCs; Dose 1 mM
  The ratio of NG2 positive cells of the total cells (%): 1%

## COc1cc2cc(Oc3ccc4ccc(=O)oc4c3)c(=O)oc2cc1O[C@@H]1O[C@H](CO)[C@@H](O)[C@H](O)[C@H]1O [Daphnoretin-7-O-β-D-glucopyranoside]
Rat NSCs; Dose 1 μM
  The ratio of NG2 positive cells of the total cells (%): 1%
Rat NSCs; Dose 10 μM
  The ratio of NG2 positive cells of the total cells (%): 1%
Rat NSCs; Dose 100 μM
  The ratio of NG2 positive cells of the total cells (%): 1%
Rat NSCs; Dose 1 mM
  The ratio of NG2 positive cells of the total cells (%): 1%

## COc1cc2ccc(=O)oc2cc1O [Scopoletin]
Rat NSCs; Dose 1 μM
  The ratio of NG2 positive cells of the total cells (%): 62 ± 5.6 %
Rat NSCs; Dose 10 μM
  The ratio of NG2 positive cells of the total cells (%): 63 ± 6.3 %
Rat NSCs; Dose 100 μM
  The ratio of NG2 positive cells of the total cells (%): 70 ± 6.9 %
Rat NSCs; Dose 1 mM
  The ratio of NG2 positive cells of the total cells (%): 68 ± 6.7 %

## O=c1ccc2ccc(O)cc2o1 [7-hydroxycoumarin]
Rat NSCs; Dose 1 μM
  The ratio of NG2 positive cells of the total cells (%): 68 ± 6.5 %
Rat NSCs; Dose 10 μM
  The ratio of NG2 positive cells of the total cells (%): 76 ± 6.6 %
Rat NSCs; Dose 100 μM
  The ratio of NG2 positive cells of the total cells (%): 89 ± 9.3 %
Rat NSCs; Dose 1 mM
  The ratio of NG2 positive cells of the total cells (%): 92 ± 8.7 %

## O=c1ccc2ccc(Oc3cc4ccc(O)cc4oc3=O)cc2o1 [Edgeworin]
Rat NSCs; Dose 1 μM
  The ratio of NG2 positive cells of the total cells (%): 60 ± 2.6 %
Rat NSCs; Dose 10 μM
  The ratio of NG2 positive cells of the total cells (%): 63 ± 2.9 %
Rat NSCs; Dose 100 μM
  The ratio of NG2 positive cells of the total cells (%): 68 ± 3.5 %
Rat NSCs; Dose 1 mM
  The ratio of NG2 positive cells of the total cells (%): 81 ± 3.1 %

## C[C@@H]1O[C@@H](Oc2ccc3ccc(=O)oc3c2-c2c(O)ccc3ccc(=O)oc23)[C@H](O)[C@H](O)[C@H]1O [Edgeworoside C]
Rat NSCs; Dose 1 μM
  The ratio of NG2 positive cells of the total cells (%): 1%
Rat NSCs; Dose 10 μM
  The ratio of NG2 positive cells of the total cells (%): 1%
Rat NSCs; Dose 100 μM
  The ratio of NG2 positive cells of the total cells (%): 1%
Rat NSCs; Dose 1 mM
  The ratio of NG2 positive cells of the total cells (%): 1%

## O=c1ccc2cc(O[C@@H]3O[C@H](CO)[C@@H](O)[C@H](O)[C@H]3O)c(O)cc2o1 [Esculetin-6-β-D-glucopyranoside]
Rat NSCs; Dose 1 μM
  The ratio of NG2 positive cells of the total cells (%): 67 ± 4.6 %
Rat NSCs; Dose 10 μM
  The ratio of NG2 positive cells of the total cells (%): 72 ± 3.5 %
Rat NSCs; Dose 100 μM
  The ratio of NG2 positive cells of the total cells (%): 70 ± 3.9 %
Rat NSCs; Dose 1 mM
  The ratio of NG2 positive cells of the total cells (%): 85 ± 5.2 %

## COc1cc2cc(Oc3ccc4ccc(=O)oc4c3)c(=O)oc2cc1O [Daphnoretin]
Rat NSCs; Dose 1 μM
  The ratio of NG2 positive cells of the total cells (%): 65 ± 5.3 %
Rat NSCs; Dose 1 μM, listed as daphnoretin
  The ratio of NG2 positive cells of the total cells (%): 65±5.3%
Rat NSCs; Dose 10 μM
  The ratio of NG2 positive cells of the total cells (%): 87 ± 7.5 %
Rat NSCs; Dose 10 μM, listed as daphnoretin
  The ratio of NG2 positive cells of the total cells (%): 87±7.5%
Rat NSCs; Dose 100 μM
  The ratio of NG2 positive cells of the total cells (%): 92 ± 8.6 %
Rat NSCs; Dose 100 μM, listed as daphnoretin
  The ratio of NG2 positive cells of the total cells (%): 92±8.6%
Rat NSCs; Dose 1 mM
  The ratio of NG2 positive cells of the total cells (%): 95 ± 6.9 %
Rat NSCs; Dose 1 mM, listed as daphnoretin
  The ratio of NG2 positive cells of the total cells (%): 95±6.9%
NSCs
  generation of round bipolar or multipolar morphology cells (probably OPCs): markedly enhance the generation of round bipolar or multipolar morphology cells

## Isopsoralen
Rat NSCs; Dose 1 μM
  The ratio of NG2 positive cells of the total cells (%): 21 ± 1.6%
Rat NSCs; Dose 10 μM
  The ratio of NG2 positive cells of the total cells (%): 1%
Rat NSCs; Dose 100 μM
  The ratio of NG2 positive cells of the total cells (%): 1%
Rat NSCs; Dose 1 mM
  The ratio of NG2 positive cells of the total cells (%): 1%

## COc1ccc2ccc(=O)oc2c1 [7-methoxy coumarin]
Rat NSCs; Dose 1 μM
  The ratio of NG2 positive cells of the total cells (%): 16.7 ± 2.2%
Rat NSCs; Dose 10 μM
  The ratio of NG2 positive cells of the total cells (%): 1%
Rat NSCs; Dose 100 μM
  The ratio of NG2 positive cells of the total cells (%): 1%
Rat NSCs; Dose 1 mM
  The ratio of NG2 positive cells of the total cells (%): 1%

## COc1cc(O)c2c(=O)cc(-c3ccc(O)cc3)oc2c1 [Genkwanin]
Rat NSCs; Dose 1 μM
  The ratio of NG2 positive cells of the total cells (%): 23 ± 2.3%
Rat NSCs; Dose 10 μM
  The ratio of NG2 positive cells of the total cells (%): 1%
Rat NSCs; Dose 100 μM
  The ratio of NG2 positive cells of the total cells (%): 1%
Rat NSCs; Dose 1 mM
  The ratio of NG2 positive cells of the total cells (%): 1%

## O=c1ccc2cc(O)c(O)cc2o1 [Aesculetin]
Rat NSCs; Dose 1 μM
  The ratio of NG2 positive cells of the total cells (%): 53 ± 2.4 %
Rat NSCs; Dose 10 μM
  The ratio of NG2 positive cells of the total cells (%): 63 ± 2.9 %
Rat NSCs; Dose 100 μM
  The ratio of NG2 positive cells of the total cells (%): 68 ± 2.7 %
Rat NSCs; Dose 1 mM
  The ratio of NG2 positive cells of the total cells (%): 75 ± 1.6 %

## COc1cc2cc(Oc3ccc4ccc(=O)oc4c3)c(=O)oc2cc1OC [Isodaphnoretin]
Rat NSCs; Dose 1 μM
  The ratio of NG2 positive cells of the total cells (%): 15.6 ± 1.8%
Rat NSCs; Dose 10 μM
  The ratio of NG2 positive cells of the total cells (%): 1%
Rat NSCs; Dose 100 μM
  The ratio of NG2 positive cells of the total cells (%): 1%
Rat NSCs; Dose 1 mM
  The ratio of NG2 positive cells of the total cells (%): 1%
